Data as given in PubChem BioAssay AID256 (DTP/NCI, 2004).
Several values for one entry are separate records, joined by “and”; a condition that tells them apart may be missing. Equal entries are not always repeated. Inconclusive results and toxic doses are left out. The calls were made as follows: active = survival T/C of 150% or more; inactive = T/C below 125% in these data.

System: CD2F1 mice, L1210 leukemia ip, survival T/C
Test: NCI In Vivo Anticancer Drug Screen. Data for tumor model L1210 Leukemia (intraperitoneal) in CD2F1 (CDF1) mice
Conditions: endpoint: mean survival time, higher = longer survival
In short: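 In this screen, transplantable tumors were grown in mice given either the compound or its vehicle. Results were expressed as the treated measurement relative to the control measurement.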

[1] = dose: 100.0 mg/kg/injection, schedule: Q04DX002 (ip), vehicle: saline with Tween-80
[2] = dose: 200.0 mg/kg/injection, schedule: Q04DX002 (ip), vehicle: saline with Tween-80
[3] = dose: 400.0 mg/kg/injection, schedule: Q04DX002 (ip), vehicle: saline with Tween-80
[4] = dose: 100.0 mg/kg/injection, schedule: Q01DX001 (ip), vehicle: saline with Tween-80
[5] = dose: 200.0 mg/kg/injection, schedule: Q01DX001 (ip), vehicle: saline with Tween-80
[6] = dose: 400.0 mg/kg/injection, schedule: Q01DX001 (ip), vehicle: saline with Tween-80
[7] = dose: 100.0 mg/kg/injection, schedule: Q04DX003 (ip), vehicle: saline with Tween-80
[8] = dose: 200.0 mg/kg/injection, schedule: Q04DX003 (ip), vehicle: saline with Tween-80
[9] = dose: 100.0 mg/kg/injection, schedule: Q01DX001 (ip), vehicle: carboxymethylcellulose (CMC)
[10] = dose: 200.0 mg/kg/injection, schedule: Q01DX001 (ip), vehicle: carboxymethylcellulose (CMC)
[11] = dose: 400.0 mg/kg/injection, schedule: Q01DX001 (ip), vehicle: carboxymethylcellulose (CMC)
[12] = dose: 100.0 mg/kg/injection, schedule: Q01DX009 (ip), vehicle: saline
[13] = dose: 400.0 mg/kg/injection, schedule: Q01DX009 (ip), vehicle: saline
[14] = dose: 50.0 mg/kg/injection, schedule: Q01DX009 (ip), vehicle: saline with Tween-80
[15] = dose: 100.0 mg/kg/injection, schedule: Q01DX009 (ip), vehicle: saline with Tween-80
[16] = dose: 200.0 mg/kg/injection, schedule: Q01DX009 (ip), vehicle: saline with Tween-80
[17] = dose: 400.0 mg/kg/injection, schedule: Q04DX003 (ip), vehicle: saline with Tween-80
[18] = dose: 50.0 mg/kg/injection, schedule: Q01DX009 (ip), vehicle: saline
[19] = dose: 100.0 mg/kg/injection, schedule: Q01DX001 (ip), vehicle: saline
[20] = dose: 100.0 mg/kg/injection, schedule: Q04DX003 (ip), vehicle: saline
[21] = dose: 200.0 mg/kg/injection, schedule: Q04DX003 (ip), vehicle: saline
[22] = dose: 400.0 mg/kg/injection, schedule: Q01DX009 (ip), vehicle: saline with Tween-80

Measured: T/C

COc1ccccc1NC(=O)Oc1ccc(Cl)cc1C
inactive: [1] 103 % of control | [2] 100 % of control | [3] 95 % of control

CN(C)c1ccc2c(c1)Oc1cc(N(C)C)ccc1C21OC(=O)c2ccccc21
inactive: [4] 97 % of control | [5] 101 % of control | [6] 97 % of control

Cc1cccc(NC(=O)C2CCC(C)(C(=O)O)C2(C)C)c1 (configuration not stated)
inactive: [7] 94 % of control | [8] 90 % of control

CN(C)C1c2ccccc2-c2ccc(NC(=O)C(F)(F)F)cc21 (configuration not stated)
inactive: dose: 50.0 mg/kg/injection, schedule: Q01DX001 (ip), vehicle: carboxymethylcellulose (CMC) 107 % of control | [9] 92 % of control | [10] 95 % of control | [11] 113 % of control

CCCc1cc(C(C)=O)c[n+](C2OC(COC(C)=O)C(OC(C)=O)C(OC(C)=O)C2OC(C)=O)c1 (configuration not stated)
inactive: dose: 3.13 mg/kg/injection, schedule: Q01DX005 (ip), vehicle: water 107 % of control | dose: 6.25 mg/kg/injection, schedule: Q01DX005 (ip), vehicle: water 100 % of control | dose: 12.5 mg/kg/injection, schedule: Q01DX005 (ip), vehicle: water 104 % of control | dose: 25.0 mg/kg/injection, schedule: Q01DX005 (ip), vehicle: water 109 % of control | dose: 50.0 mg/kg/injection, schedule: Q01DX005 (ip), vehicle: water 95 % of control

c1ccc2c(c1)-c1nc3ccccc3cc1C2N1CCCCC1 (configuration not stated)
inactive: [12] 105 % of control | dose: 200.0 mg/kg/injection, schedule: Q01DX009 (ip), vehicle: saline 103 % of control | [13] 97 % of control

CC#CCOCC(O)CO (configuration not stated)
inactive: dose: 25.0 mg/kg/injection, schedule: Q01DX009 (ip), vehicle: water 98 % of control | dose: 50.0 mg/kg/injection, schedule: Q01DX009 (ip), vehicle: water 107 % of control | dose: 100.0 mg/kg/injection, schedule: Q01DX009 (ip), vehicle: water 104 % of control | dose: 200.0 mg/kg/injection, schedule: Q01DX009 (ip), vehicle: water 115 % of control

CC(=O)OC(C)Cc1ccccc1 (configuration not stated)
inactive: [14] 96 % of control | [15] 96 % of control | [16] 100 % of control

CC(C)CCNCCO
inactive: dose: 75.0 mg/kg/injection, schedule: Q01DX001 (ip), vehicle: saline 102 % of control | dose: 150.0 mg/kg/injection, schedule: Q01DX001 (ip), vehicle: saline 102 % of control

CCOC(=O)N(N=O)c1ccc2c(c1)Cc1cc([N+](=O)[O-])ccc1-2
inactive: [9] 105 % of control | [10] 105 % of control | [11] 97 % of control

O=C(O)Cc1ccncc1
inactive: [7] 97 % of control | [8] 100 % of control | [17] 97 % of control

COC(OC(CO)C(O)S(=O)(=O)O)C(O)S(=O)(=O)O (configuration not stated)
inactive: dose: 50.0 mg/kg/injection, schedule: Q01DX001 (ip), vehicle: saline 103 % of control | [18] 124 % of control | dose: 50.0 mg/kg/injection, schedule: Q01DX009 (sc), vehicle: saline 104 % of control | dose: 50.0 mg/kg/injection, schedule: Q03HX016 (ip), vehicle: saline 115 % of control | [19] 118 % of control | dose: 100.0 mg/kg/injection, schedule: Q01DX009 (oral), vehicle: saline 105 % of control | dose: 100.0 mg/kg/injection, schedule: Q01DX009 (sc), vehicle: saline 101 % of control | dose: 100.0 mg/kg/injection, schedule: Q08DX002 (ip), vehicle: saline 109 % of control | dose: 200.0 mg/kg/injection, schedule: Q01DX009 (oral), vehicle: saline 92 % of control | dose: 200.0 mg/kg/injection, schedule: Q01DX009 (sc), vehicle: saline 101 % of control | dose: 200.0 mg/kg/injection, schedule: Q08DX002 (ip), vehicle: saline 120 % of control | dose: 400.0 mg/kg/injection, schedule: Q01DX009 (oral), vehicle: saline 94 % of control | dose: 400.0 mg/kg/injection, schedule: Q01DX009 (sc), vehicle: saline 106 % of control | dose: 800.0 mg/kg/injection, schedule: Q01DX009 (oral), vehicle: saline 94 % of control
active: dose: 100.0 mg/kg/injection, schedule: Q03HX008 (ip), vehicle: saline 160 % of control | dose: 100.0 mg/kg/injection, schedule: Q03HX016 (ip), vehicle: saline 153 % of control | [13] 168 % of control | dose: 800.0 mg/kg/injection, schedule: Q04DX003 (ip), vehicle: saline 178 % of control

Cc1ccc(C2OC2C(=O)c2ccccc2)cc1 (configuration not stated)
inactive: dose: 50.0 mg/kg/injection, schedule: Q04DX002 (ip), vehicle: saline with Tween-80 95 % of control | [4] 94 % of control | [1] 91 % of control | [5] 92 % of control | [6] 94 % of control

CCCCC(=O)OCC[N+](C)(C)C
inactive: [1] 100 % of control | [2] 95 % of control | [3] 91 % of control

CC(C)(C)OC(=O)NCCCCC(N)C(=O)OC(C)(C)C (configuration not stated)
inactive: [20] 96 % of control | [21] 93 % of control

O=C1C2CCCCC2C(=O)N1c1cccc2cccnc12 (configuration not stated)
inactive: dose: 50.0 mg/kg/injection, schedule: Q01DX001 (ip), vehicle: saline with Tween-80 98 % of control | [4] 95 % of control | [5] 95 % of control

O=C1O/C(=C\c2ccccc2)c2ccccc21
inactive: [20] 104 % of control | [21] 104 % of control | dose: 400.0 mg/kg/injection, schedule: Q04DX003 (ip), vehicle: saline 98 % of control

C[n+]1cccc(CCc2ccc[n+](C)c2)c1
inactive: [18] 92 % of control | [12] 104 % of control

O=C(O)C(=O)O.[NH-]CC1CCCC[N-]1.[Pt+2] (configuration not stated)
active: dose: 12.5 mg/kg/injection, schedule: Q04DX003 (ip), vehicle: saline with Tween-80 164 % of control | dose: 25.0 mg/kg/injection, schedule: Q04DX003 (ip), vehicle: saline with Tween-80 201 % of control | dose: 50.0 mg/kg/injection, schedule: Q04DX003 (ip), vehicle: saline with Tween-80 238 % of control

COC(=O)c1cc(-c2ccccc2)nc2c1ccc1ccccc12
inactive: [19] 94 % of control

OC(CCC(O)c1ccccc1)c1ccccc1 (configuration not stated)
inactive: dose: 75.0 mg/kg/injection, schedule: Q01DX001 (ip), vehicle: saline sonified 98 % of control | dose: 150.0 mg/kg/injection, schedule: Q01DX001 (ip), vehicle: saline sonified 96 % of control | dose: 300.0 mg/kg/injection, schedule: Q01DX001 (ip), vehicle: saline sonified 94 % of control

CCCC1CC[N-]CC1.CCCC1CC[N-]CC1.[Cl][Cu][Cl]
inactive: dose: 3.13 mg/kg/injection, schedule: Q01DX009 (ip), vehicle: saline 96 % of control | dose: 12.5 mg/kg/injection, schedule: Q01DX009 (ip), vehicle: saline 94 % of control

COc1ccc(OCCCn2cc(-c3ccc(Cl)c(Cl)c3)c(N)nc2=O)cc1
inactive: [7] 97 % of control | [8] 92 % of control | [17] 94 % of control

O=CC=O
inactive: dose: 12.5 mg/kg/injection, schedule: Q01DX009 (ip), vehicle: saline with Tween-80 100 % of control and 106 % of control | dose: 25.0 mg/kg/injection, schedule: Q01DX009 (ip), vehicle: saline with Tween-80 103 % of control and 107 % of control | [14] 97 % of control and 106 % of control | [15] 115 % of control and 107 % of control | [16] 106 % of control and 111 % of control | [22] 120 % of control and 108 % of control

N#Cc1cnoc1N
inactive: [15] 112 % of control | [16] 114 % of control | [22] 109 % of control
